The values that follow come from PubChem BioAssay (NCI).

Among the test systems are BT-549 breast; CCRF-CEM leukemia; HOP-92 NSCLC; HT29 colon; MDA-MB-231 breast; MDA-N; NCI-H522 lung; NCI/ADR-RES ovarian; OVCAR-8 ovarian; SF-539 CNS.
What all share (test): inhibition of tumour cell growth, NCI panel, 48 h

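48-hour exposure; five concentrations; linearly interpolated endpoints. The concentration for full growth arrest is given as TGI.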

For the molecule `C=C1c2c(n(S(=O)(=O)c3ccccc3)c3ccccc23)[C@@]2(C(=O)OC)CC3C=CC2N1C3`, the TGI with BT-549 breast, in the experiment on CCRF-CEM leukemia, in the experiment on HOP-92 NSCLC, in the experiment with HT29 colon, with MDA-MB-231 breast and with MDA-N was greater than 100 µM each time. Besides, the TGI with NCI-H522 lung, in the experiment with NCI/ADR-RES ovarian, with OVCAR-8 ovarian and with SF-539 CNS was greater than 100 µM throughout.

In the case of `CC1(C)CCCCCC(O)C(O)CCC(C)(C)C1=O` (stereo not given), the TGI in the experiment on BT-549 breast, with CCRF-CEM leukemia, in the experiment on HOP-92 NSCLC, in the experiment with HT29 colon, with MDA-MB-231 breast and in the experiment with MDA-N was greater than 100 µM in each case. The TGI in the experiment on NCI-H522 lung, with NCI/ADR-RES ovarian, with OVCAR-8 ovarian and in the experiment with SF-539 CNS was greater than 100 µM each time.

As to `CCOC(=O)c1nc2ccccc2nc1Nc1ccc(C(=O)OC)s1`, the TGI with BT-549 breast, with CCRF-CEM leukemia, in the experiment with HOP-92 NSCLC, with HT29 colon, with MDA-MB-231 breast and in the experiment on MDA-N was greater than 100 µM each time. The TGI in the experiment with NCI-H522 lung, in the experiment on NCI/ADR-RES ovarian, with OVCAR-8 ovarian and in the experiment with SF-539 CNS was greater than 100 µM in each case.

For `CC(=O)NC1C(OCc2ccccc2)OC(CO)C(O)C1OC(C)C(=O)NC(C(=O)NC(CCC(=O)NCCCNc1ccc([N+](=O)[O-])c2[nH]c3ccccc3c(=O)c12)C(N)=O)C(C)C` (stereo not given), the TGI with BT-549 breast, in the experiment with CCRF-CEM leukemia, in the experiment with HOP-92 NSCLC, with HT29 colon, in the experiment with MDA-MB-231 breast and with MDA-N was greater than 100 µM each time. Besides, the TGI with NCI-H522 lung, with NCI/ADR-RES ovarian, in the experiment on OVCAR-8 ovarian and in the experiment on SF-539 CNS was greater than 100 µM throughout.

Take `CCCCCCCCCCCC(=O)N(CCCCCCCCC)CC(O)C(O)C(OC1OC(CO)C(O)C(O)C1O)C(O)CO` (stereo not given): the TGI in the experiment on BT-549 breast is 36.9 µM; with CCRF-CEM leukemia, 41 µM; in the experiment on HOP-92 NSCLC, 34.4 µM; in the experiment on HT29 colon it was 34.4 µM; in the experiment on MDA-MB-231 breast, 43.2 µM; in the experiment on MDA-N, 38.4 µM. Also, the TGI in the experiment with NCI-H522 lung was 44.1 µM; in the experiment with NCI/ADR-RES ovarian it was 38.7 µM; in the experiment on OVCAR-8 ovarian it was 39.3 µM; in the experiment on SF-539 CNS, 50.8 µM.

`CCN(CC)/N=C\c1c2ccccc2cc2ccccc12`: the TGI with BT-549 breast is greater than 100 µM; in the experiment with CCRF-CEM leukemia it was 94.4 µM; in the experiment with HOP-92 NSCLC, 61.1 µM; with HT29 colon it was 88.3 µM; with MDA-MB-231 breast, greater than 100 µM; with MDA-N it was greater than 100 µM. The TGI was 63.7 µM in the experiment on NCI-H522 lung, greater than 100 µM in the experiment with NCI/ADR-RES ovarian, greater than 100 µM in the experiment with OVCAR-8 ovarian and greater than 100 µM in the experiment on SF-539 CNS.

As for `Clc1nc2nc(N3CCNCC3)nc(N3CCCC3)c2[nH]1`, the TGI with BT-549 breast worked out at 89.8 µM; in the experiment with CCRF-CEM leukemia, 41 µM; in the experiment with HOP-92 NSCLC, 37.2 µM; in the experiment with HT29 colon, 34.2 µM; with MDA-MB-231 breast it was 31.8 µM; in the experiment on MDA-N it was 32.1 µM. In addition, the TGI in the experiment with NCI-H522 lung was 33.7 µM; in the experiment on NCI/ADR-RES ovarian it was greater than 100 µM; in the experiment with OVCAR-8 ovarian, 30.3 µM; in the experiment with SF-539 CNS, 33.8 µM.

As to `O/N=C1\C/C(=N\O)c2c(Br)sc(Br)c21`, the TGI in the experiment with BT-549 breast is greater than 100 µM; with CCRF-CEM leukemia, 37.3 µM; in the experiment with HOP-92 NSCLC it was greater than 100 µM; in the experiment with HT29 colon, greater than 100 µM; with MDA-MB-231 breast, greater than 100 µM; with MDA-N, greater than 100 µM. The TGI in the experiment with NCI-H522 lung was 32.6 µM; in the experiment with NCI/ADR-RES ovarian, greater than 100 µM; in the experiment with OVCAR-8 ovarian, 40.3 µM; in the experiment with SF-539 CNS, greater than 100 µM.

For the molecule `CCCCCc1cc2cc3c(c(O)c2c(=O)[nH]1)C1(CCC3)C(=O)c2c(O)ccc(O)c2C1=O`, the TGI with BT-549 breast, with CCRF-CEM leukemia, with HOP-92 NSCLC, in the experiment with HT29 colon, in the experiment with MDA-MB-231 breast and in the experiment with MDA-N was greater than 100 µM throughout. In addition, the TGI in the experiment on NCI-H522 lung, with NCI/ADR-RES ovarian, in the experiment with OVCAR-8 ovarian and in the experiment on SF-539 CNS was greater than 100 µM in each case.

As for `OC(CCN1CCN(CCOC(c2ccccc2)c2ccccc2)CC1)c1ccccc1` (stereo not given), the TGI is 60.5 µM with BT-549 breast; greater than 100 µM in the experiment on CCRF-CEM leukemia; 75.8 µM in the experiment with HOP-92 NSCLC; 33.5 µM with HT29 colon; 33.6 µM with MDA-MB-231 breast; 36.8 µM in the experiment on MDA-N. Further, the TGI in the experiment on NCI-H522 lung was 32.7 µM; with NCI/ADR-RES ovarian, 73.1 µM; in the experiment on OVCAR-8 ovarian, 33 µM; in the experiment with SF-539 CNS, 36.8 µM.

Take `O=C1C(c2ccccc2)=C(c2ccccc2)C1(Cl)Cl`: the TGI was 6.99 µM in the experiment on BT-549 breast; 3.96 µM with CCRF-CEM leukemia; 7.14 µM with HOP-92 NSCLC; 13.6 µM in the experiment on HT29 colon; 7.84 µM in the experiment with MDA-MB-231 breast; 4.51 µM with MDA-N. For the same molecule, the TGI in the experiment on NCI-H522 lung is 4.51 µM; with NCI/ADR-RES ovarian, greater than 27 µM; with OVCAR-8 ovarian, 8.98 µM; in the experiment on SF-539 CNS it was 9.22 µM.

For `O=c1oc2ccccc2c(O)c1C(c1ccc(OCc2ccccc2)cc1)c1c(O)c2ccccc2oc1=O`, the TGI is 61.8 µM in the experiment on BT-549 breast; greater than 100 µM with CCRF-CEM leukemia; 91.6 µM in the experiment on HOP-92 NSCLC; greater than 100 µM with HT29 colon; 69.2 µM in the experiment on MDA-MB-231 breast; 59.4 µM with MDA-N. Further, the TGI with NCI-H522 lung, in the experiment with NCI/ADR-RES ovarian, with OVCAR-8 ovarian and in the experiment on SF-539 CNS was greater than 100 µM in each case.
